The values below come from US10155948B2, “Pharmaceutical composition for preventing or treating diabetic complications and screening method for preventive or therapeutic agent for diabetic complications” (KANGWON NATIONAL UNIVERSITY UNIVERSITY-INDUSTRY COOPERATION …, priority 2016, dated 2018).

One experiment deals with HRECs. The experiment can be described thus: In-vitro endothelial cell monolayer permeability assay (FITC-dextran, Transwell). The format is cell-based, human. The conditions noted are these: 50 μM cystamine, 20 μM MDC or 100 nM dasatinib 30 min, 10 ng/ml VEGF 90 min, p<0.01. As for the experimental part: In-vitro permeability assay was performed as previously described. HRECs were grown on gelatin-coated inserts (0.4 μm polycarbonate membrane) of Transwell® Permeable Supports (Costar, Corning, N.Y., USA) up to confluence. Approximately 1.0×10^5 cells in 0.5 ml of culture medium were seeded on the upper side of the membrane while 1 ml of culture medium was added to the lower compartment. […] The amount of FITC-dextran that diffused through the endothelial monolayer into the lower chamber was measured using a microplate spectrofluorometer (Molecular Devices, Sunnyvale, Calif., USA).
(A-C) HRECs were preincubated with 50 μM cystamine (Cys) and 20 μM MDC for 30 min and treated with 10 ng/ml VEGF. […] (C) Adherens junctions were quantitatively analyzed using the peak fluorescence intensities of the histograms at the single-cell level. The results are expressed as mean±SD from three independent trials. […] The amount of FITC-dextran that diffused to the lower chamber was measured by a microplate spectrofluorometer (n=3) (**p<0.01).
(A) β-catenin was visualized by confocal microscopy. […] (B) cSrc phosphorylation at Tyr^416 was analyzed by Western blot. […] Results are expressed as mean±SD from three independent experiments (**p<0.01, ***p<0.001).

The test system of a further experiment is c-Src. Description: c-Src phosphorylation (Tyr416) by Western blot in HRECs. The format is cell-based, human. The conditions noted are these: 50 μM cystamine or 100 nM dasatinib 30 min, 10 ng/ml VEGF 15 min.
For a further experiment, the system named is β-catenin. The experiment can be described thus: Visualization of β-catenin in HRECs. The format is cell-based, human. Conditions: 50 μM cystamine or 100 nM dasatinib 30 min, 10 ng/ml VEGF 90 min. As to the method: For visualization of β-catenin, cells were preincubated with inhibitors for 30 min and treated with 10 ng/ml VEGF for 90 min, fixed with 3.7% formaldehyde, and permeabilized with 0.2% Triton X-100. Cells were incubated overnight with a monoclonal anti-3-catenin antibody (1:200, Santa Cruz Biotechnology) at 4° C. Cells were then probed with an FITC-conjugated goat anti-mouse antibody (1:200, Sigma) and visualized using confocal microscopy. Images for making galleries were cropped to a smaller size using Microsoft PowerPoint 2010 software.
(A) β-catenin was visualized by confocal microscopy. Scale bar, 30 μm. (B) cSrc phosphorylation at Tyr^416 was analyzed by Western blot. (C) In-vitro endothelial cell monolayer permeability assay. Results are expressed as mean±SD from three independent experiments (**p<0.01, ***p<0.001).

In a further experiment the test system is HUVECs. The experiment can be described thus: VEGF-induced ROS generation in HUVECs. The format is cell-based, human.
The target in the next experiment is T1, TGase (Homo sapiens, UniProt P21980).
T1 construct: endogenous in cells; host or cells: HUVECs (isolated in house)
T1 sequence (P21980 1-687): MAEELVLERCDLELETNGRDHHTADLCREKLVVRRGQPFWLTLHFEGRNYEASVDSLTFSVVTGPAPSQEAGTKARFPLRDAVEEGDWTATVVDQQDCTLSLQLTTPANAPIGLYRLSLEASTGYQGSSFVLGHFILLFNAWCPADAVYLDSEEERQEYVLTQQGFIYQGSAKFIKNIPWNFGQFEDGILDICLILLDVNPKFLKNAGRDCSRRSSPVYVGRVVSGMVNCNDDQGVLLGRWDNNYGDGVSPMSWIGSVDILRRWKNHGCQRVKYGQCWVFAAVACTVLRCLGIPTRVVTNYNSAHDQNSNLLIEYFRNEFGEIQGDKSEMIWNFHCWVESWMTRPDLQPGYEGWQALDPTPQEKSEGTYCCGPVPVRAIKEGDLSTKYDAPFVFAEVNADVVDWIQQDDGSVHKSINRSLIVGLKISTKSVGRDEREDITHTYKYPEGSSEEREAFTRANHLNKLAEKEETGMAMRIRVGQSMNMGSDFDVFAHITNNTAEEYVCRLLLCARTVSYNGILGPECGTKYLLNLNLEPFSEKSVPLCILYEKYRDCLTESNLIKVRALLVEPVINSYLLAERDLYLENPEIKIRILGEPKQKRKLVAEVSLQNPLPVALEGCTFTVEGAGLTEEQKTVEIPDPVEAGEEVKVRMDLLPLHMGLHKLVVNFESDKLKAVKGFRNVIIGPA
The experiment can be described thus: VEGF-induced TGase activation in HUVECs. The format is cell-based.

Experimental for TGase: Both respectively were grown on 2% gelatin-coated plates in a M199 medium supplemented with 20% fetal bovine serum (FBS), 3 ng/ml basic fibroblastic growth factor, 5 units/ml heparin, 100 units/ml penicillin, and 100 μg/ml streptomycin. For experiments, cells were incubated for 6 hrs in a low-serum medium supplemented with 1% FBS and antibiotics.
In-situ Tgase transamidating activity was determined via confocal microscopic assay according to a previously known procedure. In brief, cells were incubated with 1 mM 5-(biotinamido)pentylamine (BAPA) for 1 hr at 37° C., fixed with 3.7% formaldehyde in PBS for 30 min, and permeabilized with 0.2% Triton X-100 in PBS for 30 min. After incubation with a blocking solution of 2% BSA in 20 mM Tris (pH 7.6), 138 mM NaCl, and 0.1% Tween 20 for 30 min, cells were treated with Cy3-conjugated streptavidin (1:200, v/v) in the blocking solution for 1 hr. Single-cell fluorescence intensities of stained cells were determined using confocal microscopy for 10 randomly selected cells per test. TGase activities were determined by comparing average fluorescence intensities of treated cells with those of control cells (expressed as multiples thereof).
Experimental for c-Src: Cells were incubated with an ice-cold lysis buffer containing 50 mM Tris-HCl (pH 7.5), 1% Triton X-100, 150 mM NaCl, 1 mM EDTA, 0.1 mM phenylmethylsulfonyl fluoride (PMSF), 10 μg/ml aprotinin, and 10 μg/ml leupeptin for 30 min. Cell lysates were separated by SDS-PAGE and transferred to polyvinylidene fluoride membranes. The membranes were blocked with 5% skim milk in TBS with 0.1% Tween for 1 hr at room temperature (RT). […] Protein bands were visualized using a chemiluminescent substrate (Pierce, Rockford, Ill.).

Consider `CN(C)c1cccc2c(S(=O)(=O)NCCCCCN)cccc12` [MDC, monodansylcadaverine], for which, in the experiment with HRECs, the “VEGF-increased in-vitro endothelial permeability” value is “inhibited”.

In the case of `NCCSSCCN` [cystamine], the “VEGF-induced c-Src phosphorylation (Tyr416)” value in the experiment on c-Src was “prevented”. In addition, the “VEGF-induced β-catenin breakdown” value in the experiment with β-catenin is “inhibited”. Also, in the experiment on HRECs, the “VEGF-increased in-vitro endothelial permeability” value is reported as “inhibited”.

In the case of `NCCS` [cysteamine], in the experiment with HUVECs, the “VEGF-enhanced ROS generation” value was “inhibited”. Further, the “VEGF-enhanced TGase activation” value on TGase is “inhibited”.

As to `NCCc1ccc(O)c(O)c1` [dopamine], in the experiment with HUVECs, the “VEGF-enhanced ROS generation” value was “inhibited”. For the same compound, on TGase, the “VEGF-enhanced TGase activation” value is recorded as “inhibited”.
